Experimental data: ChEMBL document CHEMBL1139724, “Synthesis and free radical scavenging activity of a novel metabolite from the fungus Colletotrichum gloeosporioides” (Bioorg Med Chem Lett, 2006)

Experiment: DPPH radical scavenging activity
Format: functional

| EC50 [mol/mol] | Compound |
| --- | --- |
| 0.14 | Oc1ccc([C@H]2OC[C@H](O)[C@@H]2O)cc1O |
| 0.23 | Cc1cc(C(C)(C)C)c(O)c(C(C)(C)C)c1 [BUTYLATED HYDROXYTOLUENE] |
| 0.11 | O=C(O)/C=C/c1ccc(O)c(O)c1 [CAFFEIC ACID] |
| 0.14 | O=C(O)c1ccc(O)c(O)c1 [PROTOCATECHUIC ACID] |
